From PubChem BioAssay (NCI)
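Growth conditions: 96-well plates. Treatment: test compound, 48 hours, 5 concentrations. Analysis: linear interpolation between bracketing concentrations; unreached endpoints set to highest concentration. Abbreviation: GI50, concentration required for 50% inhibition of growth. TGI marks complete inhibition of growth.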

Columns and labels:
Experiment in all cases: DTP human tumour cell line panel, 48 h
786-0 renal = tested on: 786-0 renal
A498 renal = tested on: A498 renal
A549 NSCLC = tested on: A549 NSCLC
ACHN renal = tested on: ACHN renal
BT-549 breast = tested on: BT-549 breast
CAKI-1 renal = tested on: CAKI-1 renal
CCRF-CEM leukemia = tested on: CCRF-CEM leukemia
COLO 205 colon = tested on: COLO 205 colon
DU-145 prostate = tested on: DU-145 prostate
EKVX NSCLC = tested on: EKVX NSCLC
HCC-2998 colon = tested on: HCC-2998 colon
HCT-116 colon = tested on: HCT-116 colon
HCT-15 colon = tested on: HCT-15 colon
HL-60(TB) leukemia = tested on: HL-60(TB) leukemia
HOP-62 NSCLC = tested on: HOP-62 NSCLC
HS 578T breast = tested on: HS 578T breast
IGROV1 ovarian = tested on: IGROV1 ovarian
K-562 leukemia = tested on: K-562 leukemia
KM12 colon = tested on: KM12 colon
LOX IMVI melanoma = tested on: LOX IMVI melanoma
M14 melanoma = tested on: M14 melanoma
MALME-3M melanoma = tested on: MALME-3M melanoma
MCF7 breast = tested on: MCF7 breast
MDA-MB-231 breast = tested on: MDA-MB-231 breast
MDA-MB-435 = tested on: MDA-MB-435
MOLT-4 leukemia = tested on: MOLT-4 leukemia
NCI-H23 lung = tested on: NCI-H23 lung
NCI-H460 lung = tested on: NCI-H460 lung
NCI-H522 lung = tested on: NCI-H522 lung
NCI/ADR-RES ovarian = tested on: NCI/ADR-RES ovarian
OVCAR-3 ovarian = tested on: OVCAR-3 ovarian
OVCAR-4 ovarian = tested on: OVCAR-4 ovarian
OVCAR-5 ovarian = tested on: OVCAR-5 ovarian
OVCAR-8 ovarian = tested on: OVCAR-8 ovarian
PC-3 prostate = tested on: PC-3 prostate
RPMI-8226 leukemia = tested on: RPMI-8226 leukemia
RXF 393 renal = tested on: RXF 393 renal
SF-268 CNS = tested on: SF-268 CNS
SF-295 CNS = tested on: SF-295 CNS
SF-539 CNS = tested on: SF-539 CNS
SK-MEL-2 melanoma = tested on: SK-MEL-2 melanoma
SK-MEL-28 melanoma = tested on: SK-MEL-28 melanoma
SK-MEL-5 melanoma = tested on: SK-MEL-5 melanoma
SK-OV-3 ovarian = tested on: SK-OV-3 ovarian
SN12C renal = tested on: SN12C renal
SNB-19 CNS = tested on: SNB-19 CNS
SNB-75 CNS = tested on: SNB-75 CNS
SR leukemia = tested on: SR leukemia
SW-620 colon = tested on: SW-620 colon
T-47D breast = tested on: T-47D breast
TK-10 renal = tested on: TK-10 renal
U251 CNS = tested on: U251 CNS
UACC-257 melanoma = tested on: UACC-257 melanoma
UACC-62 melanoma = tested on: UACC-62 melanoma
UO-31 renal = tested on: UO-31 renal

N#CC(C#N)=C/C=C(\Sc1ccc(F)cc1Cl)c1ccc(Cl)cc1 was tested, and the GI50 (786-0 renal) was 523 nM, the TGI (786-0 renal) was 2390 nM and the GI50 (A498 renal) was 8970 nM. For the same compound, the TGI (A498 renal) was 24000 nM, the GI50 (A549 NSCLC) was 2220 nM and the TGI (A549 NSCLC) was 12500 nM. It also gave a GI50 (ACHN renal) of 883 nM, a TGI (ACHN renal) of 2140 nM and a GI50 (BT-549 breast) of 598 nM. It also gave a TGI (BT-549 breast) of 3700 nM, a GI50 (CAKI-1 renal) of 427 nM and a TGI (CAKI-1 renal) of 3610 nM. For the same compound, the GI50 (CCRF-CEM leukemia) was 107 nM, the GI50 (COLO 205 colon) was 515 nM and the TGI (COLO 205 colon) was 5020 nM. It also gave a GI50 (DU-145 prostate) of 657 nM, a TGI (DU-145 prostate) of 8550 nM and a GI50 (EKVX NSCLC) of 8420 nM. It also gave a TGI (EKVX NSCLC) of 26900 nM, a GI50 (HCC-2998 colon) of 2300 nM and a TGI (HCC-2998 colon) of 4540 nM. It also gave a GI50 (HCT-116 colon) of 366 nM, a TGI (HCT-116 colon) of 1890 nM and a GI50 (HCT-15 colon) of 425 nM. The TGI (HCT-15 colon) was 1580 nM, the GI50 (HL-60(TB) leukemia) was 520 nM and the TGI (HL-60(TB) leukemia) was 49200 nM. It also gave a GI50 (HOP-62 NSCLC) of 904 nM, a TGI (HOP-62 NSCLC) of 3420 nM and a GI50 (HS 578T breast) of 1530 nM. It also gave a TGI (HS 578T breast) of 28200 nM, a GI50 (IGROV1 ovarian) of 1810 nM and a TGI (IGROV1 ovarian) of over 54500 nM. For the same compound, the GI50 (K-562 leukemia) was 432 nM, the TGI (K-562 leukemia) was over 100000 nM and the GI50 (KM12 colon) was 714 nM. For the same compound, the TGI (KM12 colon) was 2790 nM, the GI50 (LOX IMVI melanoma) was 318 nM and the TGI (LOX IMVI melanoma) was 1300 nM. For the same compound, the GI50 (M14 melanoma) was 433 nM, the TGI (M14 melanoma) was 2030 nM and the GI50 (MALME-3M melanoma) was 406 nM. For the same compound, the TGI (MALME-3M melanoma) was 1720 nM, the GI50 (MCF7 breast) was 417 nM and the TGI (MCF7 breast) was 2550 nM. It also gave a GI50 (MDA-MB-231 breast) of 478 nM, a TGI (MDA-MB-231 breast) of 2270 nM and a GI50 (MDA-MB-435) of 350 nM. For the same compound, the TGI (MDA-MB-435) was 1730 nM, the GI50 (MOLT-4 leukemia) was 194 nM and the TGI (MOLT-4 leukemia) was over 100000 nM. For the same compound, the GI50 (NCI-H23 lung) was 449 nM, the TGI (NCI-H23 lung) was 2490 nM and the GI50 (NCI-H460 lung) was 763 nM. For the same compound, the TGI (NCI-H460 lung) was 4820 nM, the GI50 (NCI-H522 lung) was 1930 nM and the TGI (NCI-H522 lung) was 10800 nM. It also gave a GI50 (NCI/ADR-RES ovarian) of 791 nM, a TGI (NCI/ADR-RES ovarian) of 7530 nM and a GI50 (OVCAR-3 ovarian) of 762 nM. The TGI (OVCAR-3 ovarian) was 2640 nM, the GI50 (OVCAR-4 ovarian) was 4970 nM and the TGI (OVCAR-4 ovarian) was over 64200 nM. The GI50 (OVCAR-5 ovarian) was 605 nM, the TGI (OVCAR-5 ovarian) was 2610 nM and the GI50 (OVCAR-8 ovarian) was 601 nM. The TGI (OVCAR-8 ovarian) was 6460 nM, the GI50 (PC-3 prostate) was 1420 nM and the TGI (PC-3 prostate) was 10400 nM. It also gave a GI50 (RPMI-8226 leukemia) of 96.3 nM, a TGI (RPMI-8226 leukemia) of 515 nM and a GI50 (RXF 393 renal) of 2940 nM. The TGI (RXF 393 renal) was over 100000 nM, the GI50 (SF-268 CNS) was 457 nM and the TGI (SF-268 CNS) was 1900 nM. For the same compound, the GI50 (SF-295 CNS) was 639 nM, the TGI (SF-295 CNS) was 6790 nM and the GI50 (SF-539 CNS) was 391 nM. It also gave a TGI (SF-539 CNS) of 3590 nM, a GI50 (SK-MEL-2 melanoma) of 1450 nM and a TGI (SK-MEL-2 melanoma) of 8170 nM. For the same compound, the GI50 (SK-MEL-28 melanoma) was 1230 nM, the TGI (SK-MEL-28 melanoma) was 10400 nM and the GI50 (SK-MEL-5 melanoma) was 2590 nM. It also gave a TGI (SK-MEL-5 melanoma) of 8580 nM, a GI50 (SK-OV-3 ovarian) of 2800 nM and a TGI (SK-OV-3 ovarian) of 23400 nM. The GI50 (SN12C renal) was 365 nM, the TGI (SN12C renal) was 1340 nM and the GI50 (SNB-19 CNS) was 4540 nM. It also gave a TGI (SNB-19 CNS) of 23600 nM, a GI50 (SNB-75 CNS) of 10300 nM and a TGI (SNB-75 CNS) of 31000 nM. The GI50 (SR leukemia) was 75.6 nM, the TGI (SR leukemia) was over 100000 nM and the GI50 (SW-620 colon) was 387 nM. For the same compound, the TGI (SW-620 colon) was 3820 nM, the GI50 (T-47D breast) was 659 nM and the TGI (T-47D breast) was 5190 nM. For the same compound, the GI50 (TK-10 renal) was 500 nM, the TGI (TK-10 renal) was 2080 nM and the GI50 (U251 CNS) was 414 nM. The TGI (U251 CNS) was 1690 nM, the GI50 (UACC-257 melanoma) was 1800 nM and the TGI (UACC-257 melanoma) was 4760 nM. For the same compound, the GI50 (UACC-62 melanoma) was 2180 nM, the TGI (UACC-62 melanoma) was 6160 nM and the GI50 (UO-31 renal) was 1780 nM. The TGI (UO-31 renal) was over 40300 nM.
